Measurements as given in ChEMBL document CHEMBL1132341, “Synthesis and characterization of fluorescent ligands for the norepinephrine transporter: potential neuroblastoma imaging agents” (J Med Chem, 1999).

Tested on: SK-N-SH
Assay: Inhibition of [3H]NE uptake into human SK-N-SH-SY5Y Neuroblastoma cells
Type: functional, cell-based

| Structure (SMILES) | IC50 |
| --- | --- |
| CNCCC(NS(=O)(=O)c1cccc2c(N(C)C)cccc12)c1ccccc1 (stereo not drawn) | 370 nM |
| CNCCC(Nc1ccc([N+](=O)[O-])c2nonc12)c1ccccc1 (stereo not drawn) | 850 nM |
| CCOC(=O)[C@@H]1[C@H](O/C(S)=N/c2ccc(/N=N/c3ccc(N(C)C)cc3)cc2)C[C@H]2CC[C@@H]1N2C | 1320 nM |
| CCOC(=O)[C@@H]1[C@H](OS(=O)(=O)c2cccc3c(N(C)C)cccc23)C[C@H]2CC[C@@H]1N2C | 60 nM |
| N=C(N)NCCN1c2ccccc2C=Cc2ccccc21 | 30 nM |
| N=C(N)NCc1cccc2ccccc12 | 60 nM |
| CNCCC(/N=C(\S)Nc1ccc(/N=N/c2ccc(N(C)C)cc2)cc1)c1ccccc1 (stereo not drawn) | 1020 nM |
| N=C(N)NCc1ccc(/C=C/c2ccccc2)cc1 | 120 nM |
